Here are results for five compounds from patent US9073929B2, “Aldosterone synthase inhibitors” (ElexoPharm GmbH, priority 2011, dated 2015).

Common to all, as to type: cell-based
Test [1] concerns the target T1, human CYP11B1 (Homo sapiens, UniProt P15538).
T1 construct: expressed in transfected cells; host or cells: V79MZh11B1 cells
T1 sequence (P15538 25-503): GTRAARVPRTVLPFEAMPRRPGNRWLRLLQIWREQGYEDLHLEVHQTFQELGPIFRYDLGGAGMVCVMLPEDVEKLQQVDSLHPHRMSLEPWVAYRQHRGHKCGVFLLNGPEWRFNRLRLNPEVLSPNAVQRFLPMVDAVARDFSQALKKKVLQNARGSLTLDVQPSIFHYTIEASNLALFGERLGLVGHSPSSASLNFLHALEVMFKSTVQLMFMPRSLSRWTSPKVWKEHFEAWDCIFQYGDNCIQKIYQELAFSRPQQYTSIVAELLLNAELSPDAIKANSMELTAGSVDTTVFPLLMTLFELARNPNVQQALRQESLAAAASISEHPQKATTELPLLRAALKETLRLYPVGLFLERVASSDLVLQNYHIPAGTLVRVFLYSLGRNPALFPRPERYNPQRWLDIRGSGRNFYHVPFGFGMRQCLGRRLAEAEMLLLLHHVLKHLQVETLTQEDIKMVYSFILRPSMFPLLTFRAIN
The test is described as follows: V79-Human-CYP11B1 cell assay (cortisol HTRF). As to conditions: V79-hCYP11B1 cells, 250 nM 11-deoxycortisol, 3 hours. The procedure:
Methods for V79-Human-CYP11B2 and V79-Human-CYP11B1 Assays: V79 cell lines stably expressing the either the human CYP11B2 or the human CYP11B1 enzyme were generated using a standard transfection protocol. V79 cells were transfected with plasmids pTriEx3-Hygro-hCyp11B2 or pTriEx3-Hygro-hCyp11B1 using Lipofectamine2000 reagent. […] Single cell clones were generated by infinite dilution in DMEM supplemented with 10% FBS and 400 μg/mL hygromycin until single colonies were obtained. […] For testing of inhibitors, cells were harvested at 80% confluency with 0.5% Trypsan-EDTA, washed once in PBS, and reconstituted in DMEM+0.1% BSA media at a cell concentration of 400,000 cells/mL. 25 μl of cells were added to a 384 well tissue culture treated plate and mixed with 0.25 μl of inhibitor or DMSO (1% final DMSO concentration) for 1 hour at 37° C., 5% CO2. […] The reaction was carried out for 3 hours at 37° C., 5% CO2 and was stopped by harvesting the supernatants. […] IC50's for the inhibitor were determined by plotting the amount of product formed against the concentration of inhibitor using sigmoidal dose-response curve (variable slope) fit in GraphPad.

For test [2], the target named is T1, human CYP11B1. The test is described as follows: V79-Human-CYP11B1 cell assay, modified protocol (280,000 cells/mL). As to conditions: 0.30 μl inhibitor. The procedure:
(§1) V79 cell lines stably expressing the either the human CYP11B2 or the human CYP11B1 enzyme were generated using a standard transfection protocol. V79 cells were transfected with plasmids pTriEx3-Hygro-hCyp11B2 or pTriEx3-Hygro-hCyp11B1 using Lipofectamine2000 reagent. V79 cells that stably express the human CYP11B2 or human CYP11B1 enzyme were selected for and maintained in DMEM supplemented with 10% FBS and 400 μg/mL hygromycin for ˜2 weeks. Single cell clones were generated by infinite dilution in DMEM supplemented with 10% FBS and 400 μg/mL hygromycin until single colonies were obtained. […] For testing of inhibitors, cells were harvested at 80% confluency with 0.5% Trypsan-EDTA, washed once in PBS, and reconstituted in DMEM+0.1% BSA media at a cell concentration of 400,000 cells/mL. 25 μl of cells were added to a 384 well tissue culture treated plate and mixed with 0.25 μl of inhibitor or DMSO (1% final DMSO concentration) for 1 hour at 37° C., 5% CO2. After pre-incubation with inhibitor, the reaction was initiated by adding 5 μl of substrate (final concentration of 125 nM 11-deoxycorticosterone for the CYP11B2 assay or 250 nM 11-deoxycortisol for the CYP11B1 assay). The reaction was carried out for 3 hours at 37° C., 5% CO2 and was stopped by harvesting the supernatants. The amount of product in the supernatant (aldosterone for CYP11B2 assay and cortisol for the CYP11B1 assay) was measured using HTRF-based assay kit (Aldosterone HTRF-CisBio#64ALDPEB, Cortisol HTRF-CisBio #631DC002-CORT). IC50's for the inhibitor were determined by plotting the amount of product formed against the concentration of inhibitor using sigmoidal dose-response curve (variable slope) fit in GraphPad.
(§2) For the CYP11B2 assay, cells were reconstituted in DMEM+0.1% BSA media at a cell concentration of 600,000 cells/mL and for the CYP11B1 assay cells were reconstituted in DMEM+0.1% BSA media at a cell concentration of 280,000 cells/mL. 25 μl of cells were added to a 384 well tissue culture treated plate and mixed with 0.30 μl of inhibitor or DMSO (1% final DMSO concentration) for 1 hour at 37° C., 5% CO2.

For test [3], the target named is T2, human CYP11B2 (Homo sapiens, UniProt P19099).
T2 construct: expressed in transfected cells; host or cells: V79 cells (clone V79-hCYP11B2-CLE9)
T2 sequence (P19099 25-503): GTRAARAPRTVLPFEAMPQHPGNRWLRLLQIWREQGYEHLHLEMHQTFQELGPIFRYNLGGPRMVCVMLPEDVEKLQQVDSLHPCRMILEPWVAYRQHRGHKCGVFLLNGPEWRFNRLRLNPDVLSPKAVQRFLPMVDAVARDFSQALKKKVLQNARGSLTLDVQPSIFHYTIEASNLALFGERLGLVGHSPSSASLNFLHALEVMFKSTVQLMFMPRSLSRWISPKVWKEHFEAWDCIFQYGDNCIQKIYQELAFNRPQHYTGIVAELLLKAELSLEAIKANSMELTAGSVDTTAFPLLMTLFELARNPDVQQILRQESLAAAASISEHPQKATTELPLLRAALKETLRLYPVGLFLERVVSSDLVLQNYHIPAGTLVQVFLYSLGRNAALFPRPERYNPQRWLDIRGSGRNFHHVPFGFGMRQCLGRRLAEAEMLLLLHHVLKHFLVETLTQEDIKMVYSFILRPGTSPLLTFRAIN
The test is described as follows: V79-Human-CYP11B2 cell assay, modified protocol (600,000 cells/mL). The conditions noted are these: 0.30 μl inhibitor. As for the experimental part:
as §1, §2

The target in test [4] is T2, human CYP11B2. Briefly: V79-Human-CYP11B2 cell assay (aldosterone HTRF). As to conditions: V79-hCYP11B2 cells, 125 nM 11-deoxycorticosterone, 3 hours. As for the experimental part:
Methods for V79-Human-CYP11B2 and V79-Human-CYP11B1 Assays:
V79 cell lines stably expressing the either the human CYP11B2 or the human CYP11B1 enzyme were generated using a standard transfection protocol. V79 cells were transfected with plasmids pTriEx3-Hygro-hCyp11B2 or pTriEx3-Hygro-hCyp11B1 using Lipofectamine2000 reagent. V79 cells that stably express the human CYP11B2 or human CYP11B1 enzyme were selected for and maintained in DMEM supplemented with 10% FBS and 400 μg/mL hygromycin for ˜2 weeks. Single cell clones were generated by infinite dilution in DMEM supplemented with 10% FBS and 400 μg/mL hygromycin until single colonies were obtained. Clones V79-hCYP11B2-CLE9 and V79-hCYP11B1-8C7, were determined to produce the most aldosterone and cortisol, respectively, and were selected for inhibitor screening. […] The amount of product in the supernatant (aldosterone for CYP11B2 assay and cortisol for the CYP11B1 assay) was measured using HTRF-based assay kit (Aldosterone HTRF-CisBio#64ALDPEB, Cortisol HTRF-CisBio #631DC002-CORT). IC50's for the inhibitor were determined by plotting the amount of product formed against the concentration of inhibitor using sigmoidal dose-response curve (variable slope) fit in GraphPad.

For `Cc1c(-c2cc(Cl)c3c(c2)CCc2nnc(C)n2-3)cncc1C(C)(O)C(F)(F)F` (stereo not shown) [Example 37, 1-(5-(9-chloro-1-methyl-4,5-dihydro-[1,2,4]triazolo[4,3-a]quinolin-7-yl)-4-methylpyridin-3-yl)-1,1,1-trifluoropropan-2-ol], the IC50 against human CYP11B1 [1] came to 69 nM.

With `Cc1c(F)cncc1-c1cc(F)c2c(c1)CCc1nncn1-2` [Example 17, 9-fluoro-7-(5-fluoro-4-methylpyridin-3-yl)-4,5-dihydro-[1,2,4]triazolo[4,3a] quinoline], at human CYP11B1 [1], the IC50 amounted to 1500 nM. The same measure, in the same setting: in the case of `Cc1c(-c2cc(Cl)c3c(c2)CCc2nnc(C)n2-3)cncc1C(C)(O)C(F)(F)F` (stereo not shown) [Example 38, 1-(5-(9-chloro-1-methyl-4,5-dihydro-[1,2,4]triazolo[4,3-a]quinolin-7-yl)-4-methylpyridin-3-yl)-1,1,1-trifluoropropan-2-ol] it was 527 nM. As for `Cc1nnc2n1-c1c(Cl)cc(-c3cnccc3C(F)(F)F)cc1CC2` [Example 83, 9-chloro-1-methyl-7-(4-(trifluoromethyl)pyridin-3-yl)-4,5-dihydro-[1,2,4] triazolo[4,3-a]quinoline], the 50% inhibitory concentration (IC50) was greater than 30000 nM against human CYP11B1 [2] and 22 nM against human CYP11B2 [3]. `COC(=O)C1(c2cncc(-c3ccc4c(c3)CCc3nncn3-4)c2)CC1` [Step D, p 76, methyl 1-[5-(4,5-dihydro[1,2,4]triazolo[4,3-a]quinolin-7-yl)-3-pyridinyl]cyclopropanecarboxylate]: the IC50 stood at 157 nM on human CYP11B1 [1] and 17 nM on human CYP11B2 [4].
